Biological target: T1, STAT5a (Homo sapiens, UniProt P42229)
T1 sequence (P42229 1-794): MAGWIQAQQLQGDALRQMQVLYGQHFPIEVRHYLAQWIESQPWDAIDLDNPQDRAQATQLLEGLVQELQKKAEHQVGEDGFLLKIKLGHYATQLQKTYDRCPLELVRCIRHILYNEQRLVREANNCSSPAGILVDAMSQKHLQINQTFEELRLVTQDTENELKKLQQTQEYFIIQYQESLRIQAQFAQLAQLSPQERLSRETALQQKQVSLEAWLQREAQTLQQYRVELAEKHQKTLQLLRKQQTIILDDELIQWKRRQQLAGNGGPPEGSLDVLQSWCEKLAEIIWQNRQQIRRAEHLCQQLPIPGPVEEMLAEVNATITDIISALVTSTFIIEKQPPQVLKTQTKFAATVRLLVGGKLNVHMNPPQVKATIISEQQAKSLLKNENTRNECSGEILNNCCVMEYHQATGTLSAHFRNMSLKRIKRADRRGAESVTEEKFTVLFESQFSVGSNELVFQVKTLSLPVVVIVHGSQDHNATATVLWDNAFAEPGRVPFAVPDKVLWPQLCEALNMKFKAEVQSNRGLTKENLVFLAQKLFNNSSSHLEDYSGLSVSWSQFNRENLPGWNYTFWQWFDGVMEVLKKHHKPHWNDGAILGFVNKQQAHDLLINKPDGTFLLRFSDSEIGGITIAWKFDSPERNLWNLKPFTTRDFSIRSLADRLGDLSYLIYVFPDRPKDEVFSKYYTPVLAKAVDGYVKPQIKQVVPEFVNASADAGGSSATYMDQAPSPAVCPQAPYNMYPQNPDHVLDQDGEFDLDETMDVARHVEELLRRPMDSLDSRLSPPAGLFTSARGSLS
Test: HTRF assay, STAT5a
Format: binding
Settings: STAT5a 110 nM, without reducing agent, 1 h
Text: The azo dyes PPADS and iso‐PPADS have a deep red color in aqueous solution. […] In order to exclude this possibility, we established homogeneous time‐resolved fluorescence resonance energy transfer (HTRF) assays to confirm the degree of binding between STAT4, STAT5a, and STAT5b and the respective 5‐carboxyfluorescein‐labeled binding peptides used in the FP assay. In addition, an HTRF assay was established for STAT3, one of the STAT proteins targeted to a lesser extent in FP assays, as a specificity control (Figure 1B,C). The STAT protein constructs each contain a 6x‐His‐tag.^[ [15], [16], [17], [22] ^] A Tb^3+‐cryptate fused to an anti‐6x‐His antibody was chosen as the long‐lived fluorescent donor, while the carboxyfluorescein linked to the respective STAT‐binding peptides served as the acceptor (Figure 2A). Emission was measured with a time delay of 60 μs after excitation, allowing any initial compound fluorescence to decay beforehand. […]
Screening of chemical libraries comprising approximately 5000 known bioactive compounds in fluorescence polarization-based assays against phosphorylation-dependent protein-protein interaction domains, including STAT proteins, has been described.[1] […]
Fluorescence polarization assays
Competitive fluorescence polarization (FP) assays for STAT1,[2] […] Briefly, peptide binding to proteins was analyzed using the following carboxyfluorescein (CF) -labelled pepti des at a concentration of 10 nM: STAT1: 5-CF-GpYDKPHVL-OH, STAT3: 5-CF-GpYLPQTV -NH2, STAT4: 5-CF-GpYLPQNID-OH, STAT5a and STAT5b: 5-CF-GpYLVLDKW-OH, STAT6: 5- […]
CFGp[…]-OH. […] FP was measured using an Infinite F500 plate reader (Tecan) and measurements were converted into percent inhibition according to the binding curve equation. Curves were plotted and best fits calculated using OriginPro […]
Homogenous time-resolved fluorescence (HTRF) assays for STAT3, STAT4, STAT5a and STAT5b were carried out using Cisbio Monoclonal Antibody Anti-6His-Tb Gold as the fluorescence donor (Perkin Elmer) and the corresponding CF-labelled binding peptide as the acceptor. […] The average reading from 3 wells was obtained. […]

| SMILES | IC50 [µM] |
| --- | --- |
| Cc1nc(/N=N/c2ccc(S(=O)(=O)O)cc2S(=O)(=O)O)c(COP(=O)(O)O)c(C=O)c1O [PPADS, pyridoxalphosphate‐6‐azophenyl‐2',4'‐disulfonic acid] | 1.41 ± 0.35 |
| Cc1nc(/N=N/c2cc(S(=O)(=O)O)ccc2S(=O)(=O)O)c(COP(=O)(O)O)c(C=O)c1O [iso‐PPADS] | 8.2 ± 0.7 |

From PMC12442245, “Activity Analysis of the P2X Receptor Antagonist PPADS against Signal Transducer and Activator of Transcription Proteins” (Chembiochem, 2025)
